Measured values from patent US20060004197A1, “Sulfonamide-based compounds as protein tyrosine kinase inhibitors” (priority 2004, published 2006).

Experiments:
Type in all cases: biochemical
FGF receptor (FGFr) = assay: FGFr tyrosine kinase activity, poly E4Y / 32P-ATP phosphorylation assay
Recombinant Csk = Recombinant Csk (Homo sapiens, UniProt P41240); assay: Csk tyrosine kinase activity, poly E4Y / 32P-ATP phosphorylation assay
Recombinant human Src = molecular target: T1, Recombinant human Src (Homo sapiens, UniProt P12931); assay: Src tyrosine kinase activity, poly E4Y / 32P-ATP phosphorylation assay
T1 construct: made in house; host or cells: baculovirus-insect cell system
T1 sequence (P12931 whole entry): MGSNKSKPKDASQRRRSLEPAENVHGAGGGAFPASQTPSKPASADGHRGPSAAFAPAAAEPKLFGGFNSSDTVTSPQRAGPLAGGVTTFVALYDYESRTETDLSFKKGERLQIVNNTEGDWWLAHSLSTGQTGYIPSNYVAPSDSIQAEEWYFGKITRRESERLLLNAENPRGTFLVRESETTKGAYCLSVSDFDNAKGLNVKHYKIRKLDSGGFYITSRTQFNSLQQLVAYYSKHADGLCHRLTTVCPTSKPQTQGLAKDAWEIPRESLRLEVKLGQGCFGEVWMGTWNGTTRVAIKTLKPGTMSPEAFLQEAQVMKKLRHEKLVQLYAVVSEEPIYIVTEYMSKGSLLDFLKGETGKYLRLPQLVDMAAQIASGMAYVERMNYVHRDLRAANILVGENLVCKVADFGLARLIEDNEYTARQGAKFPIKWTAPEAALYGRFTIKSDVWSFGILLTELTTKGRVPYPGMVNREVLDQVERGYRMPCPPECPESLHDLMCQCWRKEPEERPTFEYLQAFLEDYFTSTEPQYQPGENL

[1] = poly E4Y / 32P-ATP, Formula IV compounds
[2] = Table 3, Formula II compounds, NI = no inhibition at 100 μg/mL
[3] = Table 2, Formula I compounds, NI = no inhibition at 100 μg/mL
[4] = Table 4, Formula III compounds, NI = no inhibition at 100 μg/mL

Chain of Recombinant Csk (P41240 whole entry, species assumed): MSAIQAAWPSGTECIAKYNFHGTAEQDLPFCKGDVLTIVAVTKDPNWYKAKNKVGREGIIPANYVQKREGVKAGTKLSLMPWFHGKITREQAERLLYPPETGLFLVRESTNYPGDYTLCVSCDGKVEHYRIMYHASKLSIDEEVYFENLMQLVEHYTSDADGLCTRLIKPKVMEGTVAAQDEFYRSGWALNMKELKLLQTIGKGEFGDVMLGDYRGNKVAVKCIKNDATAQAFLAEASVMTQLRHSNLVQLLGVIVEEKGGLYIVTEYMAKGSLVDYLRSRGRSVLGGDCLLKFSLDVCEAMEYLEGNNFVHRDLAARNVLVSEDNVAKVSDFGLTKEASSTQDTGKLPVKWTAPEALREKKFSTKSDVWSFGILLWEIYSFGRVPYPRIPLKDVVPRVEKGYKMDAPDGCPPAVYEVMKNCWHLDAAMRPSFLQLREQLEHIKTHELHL

In the case of `COc1ccc(Oc2ccc(NS(=O)(=O)c3ccc(C)cc3)c(OCCO)c2)cc1` [Compound 62, N-[2-(2-hydroxy-ethoxy)-4-(4-methoxy-phenoxy)-phenyl]-4-toluenesulfonamide], the “IC50 (μM) FGFr” value (FGF receptor (FGFr); [1]) is reported as “NI (NI = no inhibition at 100 μg/mL)”, the IC50 (Recombinant Csk; [1]) is reported as 15 µM and the IC50 (Recombinant human Src; [1]) is reported as 126 µM.
In the case of `COc1ccc(Oc2ccc(NS(=O)(=O)Cc3ccccc3)c(NS(=O)(=O)Cc3ccccc3)c2)cc1` [Compound 12g, N-[4-(4-methoxy-phenoxy)-2-phenylmethanesulfonylamino-phenyl]-C-phenyl-methanesulfonamide], the IC50 (FGF receptor (FGFr); [2]) is reported as 70 µM, the IC50 (Recombinant Csk; [2]) is reported as 102 µM and the IC50 (Recombinant human Src; [2]) is reported as 35 µM.
For `COc1ccc(Oc2ccc(NS(=O)(=O)c3ccc(NC(C)=O)cc3)c(NS(=O)(=O)c3ccc(NC(C)=O)cc3)c2)cc1` [Compound 12j, N-[2-(4-acetamido-benzenesulfonylamino)-4-(4-methoxy-phenoxy)-phenyl]-4-acetamido-benzenesulfonamide], the IC50 (FGF receptor (FGFr); [2]) was 192 µM, the IC50 (Recombinant Csk; [2]) was greater than 160 µM and the IC50 (Recombinant human Src; [2]) was 50 µM.
In the case of `Cc1ccc(S(=O)(=O)Nc2ccc(OCCCO)cc2NS(=O)(=O)c2ccc(C)cc2)cc1` [Compound 12bb, N-[4-(3-hydroxy-propoxy)-2-(4-toluenesulfonylamino)-phenyl]-4-toluenesulfonamide], the “IC50 (μM) FGFr” value (FGF receptor (FGFr); [2]) is reported as “NI (NI = no inhibition at 100 μg/mL)”, the IC50 (Recombinant Csk; [2]) is reported as greater than 204 µM and the IC50 (Recombinant human Src; [2]) is reported as greater than 204 µM.
With `COc1ccc(COc2ccc(NS(=O)(=O)c3ccc(C)cc3)c(NS(=O)(=O)c3ccc(C)cc3)c2)cc1` [Compound 15e, N-[4-(4-methoxy-benzyloxy)-2-(4-toluenesulfonylamino)-phenyl]-4-toluenesulfonamide] the IC50 (FGF receptor (FGFr); [2]) was 132 µM, the IC50 (Recombinant Csk; [2]) was greater than 181 µM and the IC50 (Recombinant human Src; [2]) was 15 µM.
In the case of `COc1ccc(Sc2cc(NS(=O)(=O)c3ccc(C)cc3)c(NS(=O)(=O)c3ccc(C)cc3)cc2[N+](=O)[O-])cc1` [Compound 4a, N-[4-(4-methoxy-phenylsulfanyl)-5-nitro-2-(4-toluenesulfonylamino)-phenyl]-4-toluenesulfonamide], the IC50 (FGF receptor (FGFr); [3]) is reported as 5.8 µM, the IC50 (Recombinant Csk; [3]) is reported as 10.8 µM and the IC50 (Recombinant human Src; [3]) is reported as 3.4 µM.
`Cc1ccc(S(=O)(=O)Nc2ccc(Oc3ccc(CC(=O)O)cc3)cc2NS(=O)(=O)c2ccc(C)cc2)cc1` [Compound 12aa, {4-[3,4-bis(4-toluenesulfonylamino)-phenoxy]-phenyl}-acetic acid] gave an IC50 (FGF receptor (FGFr); [2]) of 10.6 µM, an IC50 (Recombinant Csk; [2]) of 77 µM and an IC50 (Recombinant human Src; [2]) of 6.7 µM.
Work on `Cc1ccc(S(=O)(=O)Nc2ccc(Oc3cccc(CC(=O)O)c3)cc2NS(=O)(=O)c2ccc(C)cc2)cc1` [Compound 12y, {3-[3,4-bis(4-toluenesulfonylamino)-phenoxy]-phenyl}-acetic acid] yielded an IC50 (FGF receptor (FGFr); [2]) of 26 µM, an IC50 (Recombinant Csk; [2]) of 104 µM and an IC50 (Recombinant human Src; [2]) of 11 µM.
`Cc1ccc(S(=O)(=O)Nc2ccc(OCc3ccc(Cl)cc3)cc2NS(=O)(=O)c2ccc(C)cc2)cc1` [Compound 15b, N-[4-(4-chloro-benzyloxy)-2-(4-toluenesulfonylamino)-phenyl]-4-toluenesulfonamide] was tested, and the IC50 (FGF receptor (FGFr); [2]) was 88 µM, the IC50 (Recombinant Csk; [2]) was greater than 180 µM and the IC50 (Recombinant human Src; [2]) was 14 µM.
In the case of `COc1ccc(Oc2ccc(NS(=O)(=O)c3ccc(C)cc3)c(OCC(=O)O)c2)cc1` [Compound 65, [5-(4-methoxy-phenoxy)-2-(4-toluenesulfonylamino)-phenoxy]-acetic acid], the “IC50 (μM) FGFr” value (FGF receptor (FGFr); [1]) is reported as “NI (NI = no inhibition at 100 μg/mL)”, the IC50 (Recombinant Csk; [1]) is reported as greater than 225 µM and the IC50 (Recombinant human Src; [1]) is reported as 169 µM.
Compound `Cc1ccc(S(=O)(=O)Nc2cc([N+](=O)[O-])c(Sc3ccc(Cl)cc3)cc2N)cc1` [Compound 55, N-[2-amino-4-(4-chloro-phenylsulfanyl)-5-nitro-phenyl]-4-toluenesulfonamide] has an IC50 (FGF receptor (FGFr); [1]) of 2.2 µM, an IC50 (Recombinant Csk; [1]) greater than 222 µM and an IC50 (Recombinant human Src; [1]) of 33 µM.
In the case of `COc1ccc(Oc2ccc(NS(=O)(=O)c3ccc(C)cc3)c(OCC(O)CO)c2)cc1` (stereo not drawn) [Compound 64, N-[2-(2,3-dihydroxy-propoxy)-4-(4-methoxy-phenoxy)-phenyl]-4-toluenesulfonamide], the “IC50 (μM) FGFr” value (FGF receptor (FGFr); [1]) is reported as “NI (NI = no inhibition at 100 μg/mL)”, the IC50 (Recombinant Csk; [1]) is reported as greater than 218 µM and the IC50 (Recombinant human Src; [1]) is reported as 189 µM.
In the case of `Cc1ccc(S(=O)(=O)Nc2cc(Sc3ccc(O)cc3)c([N+](=O)[O-])cc2NS(=O)(=O)c2ccc(C)cc2)cc1` [Compound 4d, N-[4-(4-hydroxy-phenylsulfanyl)-5-nitro-2-(4-toluenesulfonylamino)-phenyl]-4-toluenesulfonamide], the IC50 (FGF receptor (FGFr); [3]) is reported as 23.9 µM, the IC50 (Recombinant Csk; [3]) is reported as 23.9 µM and the IC50 (Recombinant human Src; [3]) is reported as 5.5 µM.
`Cc1ccc(S(=O)(=O)N(C)c2cc(Sc3ccc(Cl)cc3)c([N+](=O)[O-])cc2N(C)S(=O)(=O)c2ccc(C)cc2)cc1` [Compound 53, N-[4-(4-chloro-phenylsulfanyl)-5-nitro-2-(4-toluenesulfonyl-methyl-amino)-phenyl]-N-methyl-4-toluenesulfonamide] gave an IC50 (FGF receptor (FGFr); [1]) of 254 µM, an IC50 (Recombinant Csk; [1]) of 261 µM and an IC50 (Recombinant human Src; [1]) of 388 µM.
For `Cc1ccc(S(=O)(=O)Nc2cc(SCc3ccco3)c([N+](=O)[O-])cc2NS(=O)(=O)c2ccc(C)cc2)cc1` [Compound 4p, N-[4-(furan-2-ylmethylsulfanyl)-5-nitro-2-(4-toluenesulfonylamino)-phenyl]-4-toluenesulfonamide], the IC50 (FGF receptor (FGFr); [3]) was 7.3 µM, the IC50 (Recombinant Csk; [3]) was 11.3 µM and the IC50 (Recombinant human Src; [3]) was 1.6 µM.
With `COc1ccc(Oc2ccc(NS(=O)(=O)c3cccc([N+](=O)[O-])c3)c(NS(=O)(=O)c3cccc([N+](=O)[O-])c3)c2)cc1` [Compound 12f, N-[4-(4-methoxy-phenoxy)-2-(3-nitro-benzenesulfonylamino)-phenyl]-3-nitro-benzenesulfonamide] the IC50 (FGF receptor (FGFr); [2]) was 35 µM, the IC50 (Recombinant Csk; [2]) was greater than 167 µM and the IC50 (Recombinant human Src; [2]) was 20 µM.
`Cc1ccc(S(=O)(=O)Nc2ccc(Oc3cccc(C(=O)O)c3)cc2NS(=O)(=O)c2ccc(C)cc2)cc1` [Compound 12x, N-[4-(3-carboxy-phenoxy)-2-(4-toluenesulfonylamino)-phenyl]-4-toluenesulfonamide] was tested, and the IC50 (FGF receptor (FGFr); [2]) was 31 µM, the IC50 (Recombinant Csk; [2]) was 72 µM and the IC50 (Recombinant human Src; [2]) was 9.5 µM.
With `CC(=O)Nc1cc(NS(=O)(=O)c2ccc(C)cc2)c(NS(=O)(=O)c2ccc(C)cc2)cc1Sc1ccc(Cl)cc1` [Compound 24, N-[2-(4-chloro-phenylsulfanyl)-4,5-bis-(4-toluenesulfonylamino)-phenyl]-acetamide] the IC50 (FGF receptor (FGFr); [4]) was 515 µM, the IC50 (Recombinant Csk; [4]) was greater than 162 µM and the IC50 (Recombinant human Src; [4]) was greater than 162 µM.
`Cc1ccc(C(=O)Nc2cc(Sc3ccc(Cl)cc3)c([N+](=O)[O-])cc2NC(=O)c2ccc(C)cc2)cc1` [Compound 51, N-[4-(4-chloro-phenylsulfanyl)-5-nitro-2-(4-toluoylamino)-phenyl]-4-toluamide] was tested, and the IC50 (FGF receptor (FGFr); [1]) was 40 µM, the IC50 (Recombinant Csk; [1]) was 51 µM and the IC50 (Recombinant human Src; [1]) was 153 µM.
`Cc1ccc(S(=O)(=O)Nc2ccc([N+](=O)[O-])c(Sc3ccc(Cl)cc3)c2)cc1` [Compound 70, N-[3-(4-chloro-phenylsulfanyl)-4-nitro-phenyl]-4-toluenesulfonamide] was tested, and the IC50 (FGF receptor (FGFr); [1]) was 251 µM, the IC50 (Recombinant Csk; [1]) was 369 µM and the IC50 (Recombinant human Src; [1]) was 599 µM.
Compound `Cc1ccc(S(=O)(=O)Nc2cc(Sc3ccc(F)cc3)c([N+](=O)[O-])cc2NS(=O)(=O)c2ccc(C)cc2)cc1` [Compound 4h, N-[4-(4-fluoro-phenylsulfanyl)-5-nitro-2-(4-toluenesulfonylamino)-phenyl]-4-toluenesulfonamide] has an IC50 (FGF receptor (FGFr); [3]) of 7.8 µM, an IC50 (Recombinant Csk; [3]) of 8.6 µM and an IC50 (Recombinant human Src; [3]) of 1.8 µM.
Compound `Cc1ccc(S(=O)(=O)Nc2ccc(N3CCOCC3)cc2NS(=O)(=O)c2ccc(C)cc2)cc1` [Compound 17f, N-[4-(morpholin-4-yl)-2-(4-toluenesulfonylamino)-phenyl]-4-toluenesulfonamide] has an IC50 (FGF receptor (FGFr); [2]) of 50 µM, an IC50 (Recombinant Csk; [2]) greater than 199 µM and an IC50 (Recombinant human Src; [2]) of 38 µM.
In the case of `Cc1ccc(S(=O)(=O)Nc2cc(Sc3c(C)cccc3C)c([N+](=O)[O-])cc2NS(=O)(=O)c2ccc(C)cc2)cc1` [Compound 4m, N-[4-(2,6-dimethyl-phenylsulfanyl)-5-nitro-2-(4-toluenesulfonylamino)-phenyl]-4-toluenesulfonamide], the IC50 (FGF receptor (FGFr); [3]) is reported as 4.7 µM, the IC50 (Recombinant Csk; [3]) is reported as 5.4 µM and the IC50 (Recombinant human Src; [3]) is reported as 1 µM.
Work on `Cc1ccc(S(=O)(=O)Nc2cc(Sc3cccc(Cl)c3)c([N+](=O)[O-])cc2NS(=O)(=O)c2ccc(C)cc2)cc1` [Compound 4g, N-[4-(3-chloro-phenylsulfanyl)-5-nitro-2-(4-toluenesulfonylamino)-phenyl]-4-toluenesulfonamide] yielded an IC50 (FGF receptor (FGFr); [3]) of 5.8 µM, an IC50 (Recombinant Csk; [3]) of 9.1 µM and an IC50 (Recombinant human Src; [3]) of 1.6 µM.
`Cc1ccc(S(=O)(=O)Nc2cc(Sc3ccccc3Cl)c([N+](=O)[O-])cc2NS(=O)(=O)c2ccc(C)cc2)cc1` [Compound 4f, N-[4-(2-chloro-phenylsulfanyl)-5-nitro-2-(4-toluenesulfonylamino)-phenyl]-4-toluenesulfonamide] gave an IC50 (FGF receptor (FGFr); [3]) of 10.8 µM, an IC50 (Recombinant Csk; [3]) of 10.8 µM and an IC50 (Recombinant human Src; [3]) of 2.5 µM.
`CCCCS(=O)(=O)Nc1ccc(Oc2ccc(OC)cc2)cc1NS(=O)(=O)CCCC` [Compound 12l, butane-1-sulfonic acid [2-(butane-1-sulfonylamino)-4-(4-methoxy-phenoxy)-phenyl]-amide] was tested, and the IC50 (FGF receptor (FGFr); [2]) was 81 µM, the IC50 (Recombinant Csk; [2]) was greater than 212 µM and the IC50 (Recombinant human Src; [2]) was 40 µM.
With `Cc1ccc(S(=O)(=O)Nc2ccc(N(C)C)cc2NS(=O)(=O)c2ccc(C)cc2)cc1` [Compound 17c, N-[4-dimethylamino-2-(4-toluenesulfonylamino)-phenyl]-4-toluenesulfonamide] the IC50 (FGF receptor (FGFr); [2]) was 98 µM, the IC50 (Recombinant Csk; [2]) was greater than 218 µM and the IC50 (Recombinant human Src; [2]) was 39 µM.
With `COc1ccc(Oc2ccc(NS(=O)(=O)c3ccc(C(C)C)cc3)c(NS(=O)(=O)c3ccc(C(C)C)cc3)c2)cc1` [Compound 12b, 4-isopropyl-N-[2-(4-isopropyl-benzenesulfonylamino)-4-(4-methoxy-phenoxy)-phenyl]-benzenesulfonamide] the IC50 (FGF receptor (FGFr); [2]) was 45 µM, the IC50 (Recombinant Csk; [2]) was greater than 168 µM and the IC50 (Recombinant human Src; [2]) was 18.5 µM.
In the case of `Cc1ccc(S(=O)(=O)Nc2ccc(SCc3ccccc3Cl)cc2NS(=O)(=O)c2ccc(C)cc2)cc1` [Compound 15g, N-[4-(2-chloro-benzylsulfanyl)-2-(4-toluenesulfonylamino)-phenyl]-4-toluenesulfonamide], the “IC50 (μM) FGFr” value (FGF receptor (FGFr); [2]) is reported as “NI (NI = no inhibition at 100 μg/mL)”, the IC50 (Recombinant Csk; [2]) is reported as greater than 174 µM and the IC50 (Recombinant human Src; [2]) is reported as 11 µM.
